In experiment [1] the target is T1, Tyrosine-protein phosphatase non-receptor type 1 (Homo sapiens, UniProt P18031).
T1 sequence (P18031 whole entry): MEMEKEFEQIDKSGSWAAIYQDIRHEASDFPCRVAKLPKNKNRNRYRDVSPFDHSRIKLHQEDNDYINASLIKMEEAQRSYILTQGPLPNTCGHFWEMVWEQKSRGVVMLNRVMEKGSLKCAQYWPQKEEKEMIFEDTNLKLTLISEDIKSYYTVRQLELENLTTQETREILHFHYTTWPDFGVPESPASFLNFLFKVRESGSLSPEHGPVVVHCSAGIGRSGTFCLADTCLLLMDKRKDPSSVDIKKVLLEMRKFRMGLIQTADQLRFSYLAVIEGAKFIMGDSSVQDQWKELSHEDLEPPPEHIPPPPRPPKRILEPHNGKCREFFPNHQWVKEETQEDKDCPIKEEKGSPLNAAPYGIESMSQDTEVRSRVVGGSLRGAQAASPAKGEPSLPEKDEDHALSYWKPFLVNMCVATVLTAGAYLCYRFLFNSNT
The experiment can be described thus: Inhibition of Protein-tyrosine phosphatase 1B (PTP1B).

Experiment [2] has as its target Tyrosine-protein phosphatase non-receptor type 2 (Homo sapiens, UniProt P17706). The experiment can be described thus: Inhibition of T-cell Protein Tyrosine Phosphatase (TCPTP).
Experiment [3] addresses T2, M-phase inducer phosphatase 3 (Homo sapiens, UniProt P30307).
T2 sequence (P30307 whole entry): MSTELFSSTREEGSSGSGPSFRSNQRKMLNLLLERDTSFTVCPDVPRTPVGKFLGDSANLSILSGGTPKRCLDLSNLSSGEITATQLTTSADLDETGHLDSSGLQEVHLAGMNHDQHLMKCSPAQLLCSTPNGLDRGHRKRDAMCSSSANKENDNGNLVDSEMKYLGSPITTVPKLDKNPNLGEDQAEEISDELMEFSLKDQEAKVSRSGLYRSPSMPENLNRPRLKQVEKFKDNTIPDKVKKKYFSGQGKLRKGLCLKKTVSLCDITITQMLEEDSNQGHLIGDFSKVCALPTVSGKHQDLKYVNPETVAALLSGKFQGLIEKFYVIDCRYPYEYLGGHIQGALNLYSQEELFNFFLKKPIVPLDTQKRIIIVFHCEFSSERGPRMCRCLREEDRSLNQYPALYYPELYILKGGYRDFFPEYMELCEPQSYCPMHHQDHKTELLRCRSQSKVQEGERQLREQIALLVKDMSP
The experiment can be described thus: Inhibitory potency against Cell division cycle 25 degree C.

For experiment [4], the target named is T3, Receptor-type tyrosine-protein phosphatase C (Homo sapiens, UniProt P08575).
T3 sequence (P08575 whole entry): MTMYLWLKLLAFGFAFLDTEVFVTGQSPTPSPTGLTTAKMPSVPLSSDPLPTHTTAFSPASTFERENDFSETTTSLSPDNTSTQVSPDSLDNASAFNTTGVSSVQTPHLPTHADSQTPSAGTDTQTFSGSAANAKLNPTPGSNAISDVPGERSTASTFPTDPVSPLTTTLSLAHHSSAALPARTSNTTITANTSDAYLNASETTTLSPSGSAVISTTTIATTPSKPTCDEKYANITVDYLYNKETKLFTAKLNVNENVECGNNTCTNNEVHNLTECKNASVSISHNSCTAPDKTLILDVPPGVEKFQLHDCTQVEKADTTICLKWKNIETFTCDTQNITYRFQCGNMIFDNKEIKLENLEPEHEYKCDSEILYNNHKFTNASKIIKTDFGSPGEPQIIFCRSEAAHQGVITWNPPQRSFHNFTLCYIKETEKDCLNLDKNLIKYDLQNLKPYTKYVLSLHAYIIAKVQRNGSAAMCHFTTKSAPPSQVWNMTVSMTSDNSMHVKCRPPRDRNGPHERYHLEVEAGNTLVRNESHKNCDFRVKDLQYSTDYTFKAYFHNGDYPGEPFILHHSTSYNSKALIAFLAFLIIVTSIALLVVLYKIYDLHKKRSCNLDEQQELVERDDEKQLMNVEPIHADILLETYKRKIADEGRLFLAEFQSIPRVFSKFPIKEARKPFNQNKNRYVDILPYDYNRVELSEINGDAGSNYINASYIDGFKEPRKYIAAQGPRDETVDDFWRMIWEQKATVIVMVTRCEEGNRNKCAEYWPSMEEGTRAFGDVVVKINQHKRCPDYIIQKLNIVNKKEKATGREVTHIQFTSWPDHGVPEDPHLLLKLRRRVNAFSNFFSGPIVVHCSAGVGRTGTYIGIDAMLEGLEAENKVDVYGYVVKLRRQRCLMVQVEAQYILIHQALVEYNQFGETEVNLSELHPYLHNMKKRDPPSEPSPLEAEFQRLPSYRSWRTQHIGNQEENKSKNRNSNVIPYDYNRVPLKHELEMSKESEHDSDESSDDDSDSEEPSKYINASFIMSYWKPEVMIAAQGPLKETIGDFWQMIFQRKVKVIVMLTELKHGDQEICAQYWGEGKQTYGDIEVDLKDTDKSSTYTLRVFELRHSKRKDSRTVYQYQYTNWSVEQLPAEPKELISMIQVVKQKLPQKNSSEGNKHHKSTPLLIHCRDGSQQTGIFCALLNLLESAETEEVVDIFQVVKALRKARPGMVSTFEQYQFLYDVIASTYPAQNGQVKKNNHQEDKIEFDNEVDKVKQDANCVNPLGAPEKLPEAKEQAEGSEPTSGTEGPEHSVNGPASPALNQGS
Nature of the experiment: Inhibitory potency against CD45 Phosphatase.

In experiment [5] the target is T4, Tyrosine-protein phosphatase non-receptor type 11 (Homo sapiens, UniProt Q06124).
T4 sequence (Q06124 whole entry): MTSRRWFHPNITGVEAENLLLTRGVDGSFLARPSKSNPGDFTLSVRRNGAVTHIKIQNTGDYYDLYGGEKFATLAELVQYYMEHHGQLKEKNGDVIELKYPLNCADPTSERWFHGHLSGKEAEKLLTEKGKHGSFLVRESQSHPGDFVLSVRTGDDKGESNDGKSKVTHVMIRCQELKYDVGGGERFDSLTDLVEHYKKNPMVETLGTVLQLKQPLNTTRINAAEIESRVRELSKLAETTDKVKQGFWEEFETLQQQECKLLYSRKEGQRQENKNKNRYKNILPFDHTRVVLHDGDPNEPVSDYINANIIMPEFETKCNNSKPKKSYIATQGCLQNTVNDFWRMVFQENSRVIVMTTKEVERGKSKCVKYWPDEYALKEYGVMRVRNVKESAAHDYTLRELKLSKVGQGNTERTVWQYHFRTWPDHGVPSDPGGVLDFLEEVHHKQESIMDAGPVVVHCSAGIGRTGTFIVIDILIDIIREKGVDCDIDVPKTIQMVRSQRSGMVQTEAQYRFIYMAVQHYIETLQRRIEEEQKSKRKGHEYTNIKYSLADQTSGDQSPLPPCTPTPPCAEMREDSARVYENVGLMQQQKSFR
Nature of the experiment: Inhibitory potency against Tyrosine phosphatase SHP2.

For experiment [6], the target named is Receptor-type tyrosine-protein phosphatase F (Homo sapiens, UniProt P10586). Nature of the experiment: Inhibitory potency against LAR.
Chain of Receptor-type tyrosine-protein phosphatase F (P10586 whole entry): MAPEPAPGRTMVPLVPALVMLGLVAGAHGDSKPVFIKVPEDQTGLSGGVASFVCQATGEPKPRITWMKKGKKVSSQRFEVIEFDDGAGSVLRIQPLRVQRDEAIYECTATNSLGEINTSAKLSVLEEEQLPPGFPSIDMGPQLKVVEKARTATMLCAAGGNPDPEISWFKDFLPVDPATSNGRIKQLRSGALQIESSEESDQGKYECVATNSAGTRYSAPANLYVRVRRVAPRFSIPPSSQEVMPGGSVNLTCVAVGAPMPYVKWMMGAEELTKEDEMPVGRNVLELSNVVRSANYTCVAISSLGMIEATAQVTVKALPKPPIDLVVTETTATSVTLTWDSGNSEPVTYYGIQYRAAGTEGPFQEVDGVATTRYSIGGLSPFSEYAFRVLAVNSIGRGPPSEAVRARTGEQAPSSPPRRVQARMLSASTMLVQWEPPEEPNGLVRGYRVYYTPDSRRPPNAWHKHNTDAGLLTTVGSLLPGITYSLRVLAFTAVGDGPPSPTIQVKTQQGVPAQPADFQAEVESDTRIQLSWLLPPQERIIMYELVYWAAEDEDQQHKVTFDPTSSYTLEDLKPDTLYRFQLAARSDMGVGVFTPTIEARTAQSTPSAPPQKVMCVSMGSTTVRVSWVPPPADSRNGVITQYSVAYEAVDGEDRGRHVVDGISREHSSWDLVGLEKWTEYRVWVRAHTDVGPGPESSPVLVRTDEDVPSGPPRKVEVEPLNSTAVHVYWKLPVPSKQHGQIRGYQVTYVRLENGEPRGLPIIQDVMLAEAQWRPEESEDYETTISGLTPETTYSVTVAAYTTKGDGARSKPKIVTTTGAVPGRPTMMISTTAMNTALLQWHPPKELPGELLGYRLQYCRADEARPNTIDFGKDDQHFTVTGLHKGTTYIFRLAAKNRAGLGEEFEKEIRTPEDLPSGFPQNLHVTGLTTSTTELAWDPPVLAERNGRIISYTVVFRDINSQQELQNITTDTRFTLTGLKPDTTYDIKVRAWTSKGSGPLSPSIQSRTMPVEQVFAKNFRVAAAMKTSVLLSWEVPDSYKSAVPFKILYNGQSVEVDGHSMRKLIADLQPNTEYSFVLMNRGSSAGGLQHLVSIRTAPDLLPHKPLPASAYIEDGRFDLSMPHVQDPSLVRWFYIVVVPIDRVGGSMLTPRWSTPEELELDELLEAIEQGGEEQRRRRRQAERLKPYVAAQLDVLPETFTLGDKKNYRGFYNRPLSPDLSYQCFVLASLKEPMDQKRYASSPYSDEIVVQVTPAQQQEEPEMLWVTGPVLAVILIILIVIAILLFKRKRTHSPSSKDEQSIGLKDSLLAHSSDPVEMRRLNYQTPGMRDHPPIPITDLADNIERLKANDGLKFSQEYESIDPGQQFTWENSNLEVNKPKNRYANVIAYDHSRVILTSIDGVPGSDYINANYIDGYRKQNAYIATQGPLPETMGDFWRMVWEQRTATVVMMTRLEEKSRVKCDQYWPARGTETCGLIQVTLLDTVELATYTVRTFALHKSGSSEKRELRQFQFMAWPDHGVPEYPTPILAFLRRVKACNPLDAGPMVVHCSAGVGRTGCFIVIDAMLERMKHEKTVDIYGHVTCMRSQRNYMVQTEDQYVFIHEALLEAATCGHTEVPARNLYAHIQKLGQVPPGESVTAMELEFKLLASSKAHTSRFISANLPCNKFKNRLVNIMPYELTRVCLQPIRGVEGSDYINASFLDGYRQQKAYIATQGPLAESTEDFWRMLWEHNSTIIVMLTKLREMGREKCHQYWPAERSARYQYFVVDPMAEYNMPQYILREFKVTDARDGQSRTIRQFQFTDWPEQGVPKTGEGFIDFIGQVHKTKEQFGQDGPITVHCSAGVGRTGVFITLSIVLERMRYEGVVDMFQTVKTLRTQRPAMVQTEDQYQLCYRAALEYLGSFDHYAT

For 13 molecules, Ki results are on record in ChEMBL document CHEMBL1145874, “Discovery and SAR of novel, potent and selective protein tyrosine phosphatase 1B inhibitors” (Bioorg Med Chem Lett, 2003).

The Ki is the dissociation constant of the complex between target and ligand, obtained from inhibition or displacement.

Chain of Tyrosine-protein phosphatase non-receptor type 2 (P17706 whole entry, looked up): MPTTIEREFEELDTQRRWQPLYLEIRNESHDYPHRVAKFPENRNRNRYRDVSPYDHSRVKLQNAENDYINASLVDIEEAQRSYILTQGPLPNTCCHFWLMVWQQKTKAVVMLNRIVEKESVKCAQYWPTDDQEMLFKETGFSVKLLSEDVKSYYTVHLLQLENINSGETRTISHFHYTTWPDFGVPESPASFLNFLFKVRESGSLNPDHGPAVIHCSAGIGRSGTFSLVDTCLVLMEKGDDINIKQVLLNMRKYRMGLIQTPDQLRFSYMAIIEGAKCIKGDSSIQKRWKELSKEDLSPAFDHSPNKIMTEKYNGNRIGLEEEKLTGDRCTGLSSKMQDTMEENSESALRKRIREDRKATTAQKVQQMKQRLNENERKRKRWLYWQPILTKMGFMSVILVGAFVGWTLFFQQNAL

Take `COC(=O)c1c(O)cccc1OCCCCNC(=O)C(Cc1ccc(OC(C(N)=O)C(=O)O)cc1)NC(=O)OC(C)(C)C` (stereo unspecified): the Ki in experiment [1] is 13.8 µM; in experiment [2], 79.5 µM.

For the molecule `COC(=O)c1c(O)cccc1OCCCCNC(=O)C(Cc1ccc(OC(C(=O)O)C(=O)O)cc1)NC(=O)OC(C)(C)C` (stereo unspecified), the inhibitory constant (Ki) was more than 30 µM in experiment [3]; more than 30 µM in experiment [4]; more than 30 µM in experiment [5]; 24.8 µM in experiment [2]; more than 30 µM in experiment [6].

As to `COC(=O)c1c(O)cccc1OCCCCNC(=O)[C@H](Cc1ccc(OC(C)C(=O)O)c(C(=O)O)c1)NC(=O)[C@H](Cc1ccccc1)NC(=O)OC(C)(C)C` (stereo partly specified), the Ki is 0.16 µM in experiment [1]; more than 30 µM in experiment [3]; more than 30 µM in experiment [4]; more than 30 µM in experiment [5]; 1.97 µM in experiment [2]; more than 30 µM in experiment [6].

In experiment [1], `CCC(CC(=O)O)N(C(=O)C(=O)O)c1ccc(C[C@H](NC(=O)OC(C)(C)C)C(=O)NCCCCOc2cccc(O)c2C(=O)OC)cc1` (stereo partly specified) gave a Ki of 1.8 µM.

As to `COC(=O)c1c(O)cccc1OCCCCNC(=O)C(Cc1ccc(OC(C(=O)O)C(=O)NC2CC2)cc1)NC(=O)OC(C)(C)C` (stereo unspecified), the inhibitory constant (Ki) in experiment [1] was 8.4 µM; in experiment [2], more than 200 µM.

For `CCC(CN(C(=O)C(=O)O)c1ccc(C[C@H](NC(=O)OC(C)(C)C)C(=O)NCCCCOc2cccc(O)c2C(=O)OC)cc1)C(=O)O` (stereo partly specified), the Ki in experiment [1] was 1.7 µM; in experiment [3], more than 30 µM; in experiment [4] it was more than 30 µM; in experiment [5] it was more than 30 µM; in experiment [2], 9 µM; in experiment [6], more than 30 µM.

As for `COC(=O)c1c(O)cccc1OCCCCNC(=O)[C@H](Cc1ccc(OCC(=O)O)c(C(=O)O)c1)NC(C)=O`, the Ki is 9.4 µM in experiment [1] and 129 µM in experiment [2].

Consider `COC(=O)c1c(O)cccc1OCCCCNC(=O)[C@H](Cc1ccc(OCC(=O)O)c(C(=O)O)c1)NC(=O)OC(C)(C)C`, for which the Ki in experiment [1] was 2.1 µM; in experiment [2], more than 30 µM.

On to `COC(=O)c1c(O)cccc1OCCCCNC(=O)[C@H](Cc1ccc(OC(C)C(=O)O)c(C(=O)O)c1)NC(=O)OC(C)(C)C` (stereo partly specified), for which the values for the inhibition constant Ki in experiment [1] and in experiment [2] were 48.6 µM and 273 µM, respectively.

As to `COC(=O)c1c(O)cccc1OCCCCNC(=O)[C@H](Cc1ccc(OCC(=O)O)cc1)NC(=O)OC(C)(C)C`, the Ki in experiment [1] is 220 µM; in experiment [2], more than 200 µM.

On to `COC(=O)c1c(O)cccc1OCCCCNC(=O)[C@H](Cc1ccc(N(CCC(=O)O)C(=O)C(=O)O)cc1)NC(=O)OC(C)(C)C`, for which the Ki in experiment [1] and in experiment [2] was more than 200 µM throughout.

For `COC(=O)c1c(O)cccc1OCCCCNC(=O)[C@H](Cc1ccc(N(CC(C(=O)O)c2ccccc2)C(=O)C(=O)O)cc1)NC(=O)OC(C)(C)C` (stereo partly specified), the Ki came out at 15.2 µM in experiment [1] and 97.8 µM in experiment [2].

Regarding `COC(=O)c1c(O)cccc1OCCCCNC(=O)[C@H](Cc1ccc(N(CC(C)C(=O)O)C(=O)C(=O)O)cc1)NC(=O)OC(C)(C)C` (stereo partly specified), the Ki in experiment [1] is 3.2 µM; in experiment [2], 16.7 µM.
